In article PMC8292346, “Dysfunction of the key ferroptosis-surveilling systems hypersensitizes mice to tubular necrosis during acute kidney injury” (Nature Communications, 2021):
Several values for one entry are separate records, joined by “and”; a condition that tells them apart may be missing. Equal entries are not always repeated. Entries after “also recorded” stand apart in the source; their conditions may differ.

What was measured:
[1] = Inhibited co-autoxidation of egg phosphatidylcholine liposomes and STY-BODIPY (radical-trapping antioxidant activity); settings: 2 µM Fer-1
Method: Inhibitors were then added (5 μl aliquots) at desired concentrations to the appropriate wells followed by vigorous mixing. […] Experiments were performed in triplicate using HPLC grade solvents and kinetic data is given as an average of three independent measurements. […]

[2] = system: HT29 cells; experiment: TSZ-induced necroptosis, 7-AAD/annexin V flow cytometry; assay type: cell-based, human; settings: HT29, TSZ; Nec-1f 10 µM
Method: (§1) To induce necroptosis in a human cell line, HT29 cells were stimulated at the indicated time points with 20 ng/ml human TNFα (Biolegend), 1 μM SMAC-mimetics (Birinapant, Chemietek), and 20 μM zVAD-fmk (Selleckchem, herein referred to as zVAD). For the induction of necroptosis in NIH3T3 cells, cells were incubated with 20 ng/ml TNF-α and 20 μM zVAD for indicated time points. […] Cells were seeded in six-well plates or petri dishes. […] After indicated time points, cells were collected and prepared for flow cytometry, immunoblotting, and/or LDH release assays.
(§2) Cells were harvested and the pellets were washed twice in PBS and stained with 5 μl of 7-AAD (BD Biosciences) and 5 μl of annexin-V-FITC (BD Biosciences) added to 100 μl annexin-V binding buffer (BD Biosciences). After 15 min, cells were recorded on the LSRII with the FACS Diva 6.1.1 software (BD Biosciences) and subsequently analyzed with the FlowJo v10 software (Tree Star).

[3] = system: NIH3T3 cells; experiment: Simultaneous ferroptosis and necroptosis (RSL3 plus TZ), 7-AAD/annexin V flow cytometry; assay type: cell-based, murine; settings: NIH3T3, 16 h
Method: as §1, §2

[4] = system: HT1080 cells; experiment: CellTiter-Glo luminescent cell viability assay (ATP), dose-response; assay type: cell-based, human
Method: Cells were plated in an opaque-walled 96-well plate and treatment with ferroptosis inducers and/or ferroptosis inhibitors was initiated 24 h later. […] Here, the reaction agent was directly added to the wells, mixed on an orbital shaker for 2 min, and then incubated at room temperature for 10 min. The luminescence was detected using a Promega GloMax® instrument.

[5] = system: CD10-135 cells; experiment: FINs/ferroptocide, LDH release assay; assay type: cell-based, human; parameters: LDH release: unit not given here; settings: for LDH release: Nec-1f 30 µM
[6] = system: primary murine tubular cells; experiment: RSL3-induced LDH release of primary kidney tubular cells; assay type: cell-based; settings: primary renal tubular cells, RSL3 14 h
Method: The LDH release of cells or of freshly isolated kidney tubules was measured according to manufacturers’ instructions at indicated time points. In brief, an aliquot of the supernatant was taken and Lysis Solution was added for 45 min to induce maximal LDH release before another aliquot of the supernatant was taken. Subsequently, the supernatants were incubated with CytoTox 96® Reagent for 15 min protected from light at room temperature before adding Stop Solution. Absorbance was measured at 490 nm.
Generation, cell culture, and induction of cell death in primary murine tubular cells. Murine tubular cells were generated by outgrowth from isolated renal tubules (see above). Primary murine tubules were placed in six-well plates containing Dulbecco’s Modified Eagle Medium F-12 Nutrient Mixture without phenol red (DMEM/F12, Thermo Fisher), supplemented with 0.01 mg/ml recombinant human insulin, 5.5 μg/ml human transferrin, 0.005 μg/ml Na2SeO3 (ITS without linoleic acid, Sigma Aldrich), 50 nM hydrocortisone, 100 U/ml penicillin, and 100 μg/ml streptomycin (Pen/Strep, Thermo Fisher). After two days, the outgrown primary murine tubular cells were washed with PBS and a fresh medium was added. When the number of primary murine tubular cells reached approximately 50% confluence, the cells were removed from the six-well plates using Trypsin-EDTA (Thermo Fisher), washed with medium and a Ficoll Paque Plus (Sigma Aldrich) gradient was performed to remove any dead cells, and debris from the murine renal tubules. Cells were washed twice with PBS and seeded in six-well plates with medium. Once the number of grown cells reached approximately 50% confluence, they were washed with PBS and treated with type 2 FIN: RSL3 (also see Supplementary Table 2 for details). After 14 h, medium and cells were collected and prepared for LDH release assay. Images of the treated primary murine tubular cells were obtained using a 20×/0.30 PH1 objective on a Leica DMi1 microscope.

[7] = system: NIH3T3 cells; experiment: Ferroptosis inducers (FINs)/ferroptocide, 7-AAD/annexin V flow cytometry; assay type: cell-based, murine; settings: for cells in 7-AAD/annexin V flow cytometry (FigS9b): individual replicates

CCOC(=O)c1ccc(NC2CCCCC2)c(N)c1 [Fer-1, ferrostatin-1]
ΔSTY-BODIPY ([1]; time 53820 s): -0.3745 µM
ΔSTY-BODIPY ([1]; time 53880 s): -0.3737 µM
ΔSTY-BODIPY ([1]; time 53940 s): -0.3729 µM
ΔSTY-BODIPY ([1]; time 54000 s): -0.3705 µM
Protection against TSZ-induced necroptosis (7-AAD/annexin V, words) [2]: did not provide protection against necroptosis
Rescue from necrosis induced by RSL3 plus TZ [3]: fail to rescue
ATP luminescence (CellTiterGlo) ([4]; HT1080 + Erastin, inhibitor concentration 0.01 (unit not given)): 8.302%
ATP luminescence (CellTiterGlo) ([4]; HT1080 + Erastin, inhibitor concentration 0.1 (unit not given)): 100.351%
ATP luminescence (CellTiterGlo) ([4]; HT1080 + Erastin, inhibitor concentration 1 (unit not given)): 97.0601%
ATP luminescence (CellTiterGlo) ([4]; HT1080 + Erastin, inhibitor concentration 10 (unit not given)): 92.1314%
ATP luminescence (CellTiterGlo) ([4]; HT1080 + Erastin, inhibitor concentration 30 (unit not given)): 88.0064%
ATP luminescence (CellTiterGlo) ([4]; HT1080 + Ferroptocide, inhibitor concentration 0.01 (unit not given)): 2.0385% and 1.258%
ATP luminescence (CellTiterGlo) ([4]; HT1080 + RSL3, inhibitor concentration 0.01 (unit not given)): 46.842% and 51.9737%
ATP luminescence (CellTiterGlo) ([4]; HT1080 + RSL3, inhibitor concentration 0.1 (unit not given)): 61.3859% and 117.078%
ATP luminescence (CellTiterGlo) ([4]; HT1080 + RSL3, inhibitor concentration 1 (unit not given)): 60.0511% and 109.723%
ATP luminescence (CellTiterGlo) ([4]; HT1080 + RSL3, inhibitor concentration 10 (unit not given)): 58.2722% and 113.348%
LDH release ([5]; CD10-135, FIN56 alone (FIN) or with Fer-1, Nec-1s): 8.38 and 8.509 and 10.9286
LDH release ([5]; CD10-135, FINO2 alone (FIN) or with Fer-1, Nec-1s): 8.33 and 7.093 and 7.5109
LDH release ([5]; CD10-135, RSL3 alone (FIN) or with Fer-1, Nec-1s): 6.44 and 3.43
LDH release ([5]; CD10-135, ferroptocide alone (FIN) or with Fer-1, Nec-1s): 30.26 and 29.1563
Effect on FIN-induced LDH release ([5]; CD10-135 cells): reversed
Effect on the phenotype induced by ferroptocide ([5]; CD10-135 cells): reversed the phenotype
Effect on RSL3-induced LDH release [6]: prevented; also recorded: complete reversal of LDH release
cells in 7-AAD/annexin V flow cytometry (FigS9b) ([7]; Erastin-induced ferroptosis): 95.0% and 94.0% and 92.0%
cells in 7-AAD/annexin V flow cytometry (FigS9b) ([7]; FIN56-induced ferroptosis): 94.1% and 94.0%
cells in 7-AAD/annexin V flow cytometry (FigS9b) ([7]; FINO2-induced ferroptosis): 90.0% and 90.2%
cells in 7-AAD/annexin V flow cytometry (FigS9b) ([7]; Ferroptocide-induced cell death): 93.0% and 79.0%
double-negative events (7-AAD/annexin V) ([7]; NIH3T3, 10 µM ferroptocide 24 h, alone (DMSO) or with Fer-1 1 µM, Nec-1s 30 µM, Nec-1f 30 µM): 76.5% and 92.2% and 95.9% and 92.6%
cells in 7-AAD/annexin V flow cytometry (FigS9b) ([7]; RSL3-induced ferroptosis): 95.0% and 92.0%
